Measured values from US6737383B1, “Herbicidal oxadiazolidines” (priority 1999, dated 2004).

Key:
bedstraw = assay: Test B pre/postemergence bedstraw; format: in vivo, Galium aparine
Method in brief: (§1)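 Response is a visual 0-to-10 score relative to untreated plants, where 0 means no effect and 10 means complete control, taken twelve to sixteen days after application. Treatments went onto soil at planting and onto foliage of 1- to 4-leaf plants, using a surfactant-containing non-phytotoxic solvent.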

blackgrass = assay: Test B pre/postemergence blackgrass; format: in vivo, Alopecurus myosuroides
Method in brief: as §1

surinam grass = assay: Test B pre/postemergence surinam grass; format: in vivo, Brachiaria decumbens
Method in brief: as §1

cocklebur = assay: Test B pre/postemergence cocklebur; format: in vivo, Xanthium strumarium
Method in brief: as §1

corn = assay: Test B pre/postemergence corn; format: in vivo, Zea mays
Method in brief: as §1

crabgrass = assay: Test B pre/postemergence crabgrass; format: in vivo, Digitaria sanguinalis
Method in brief: as §1

giant foxtail = assay: Test B pre/postemergence giant foxtail; format: in vivo, Setaria faberii
Method in brief: as §1

morningglory = assay: Test B pre/postemergence morningglory; format: in vivo, Ipomoea hederacea
Method in brief: as §1

pigweed = assay: Test B pre/postemergence pigweed; format: in vivo, Amaranthus retroflexus
Method in brief: as §1

rape = assay: Test B pre/postemergence rape; format: in vivo, Brassica napus
Method in brief: as §1

soybean = assay: Test B pre/postemergence soybean; format: in vivo, Glycine max; details: Preemergence
Method in brief: as §1

sugar beet = assay: Test B pre/postemergence sugar beet; format: in vivo, Beta vulgaris; details: Preemergence
Method in brief: as §1

velvetleaf = assay: Test B pre/postemergence velvetleaf; format: in vivo, Abutilon theophrasti; details: Preemergence
Method in brief: as §1

wheat = assay: Test B pre/postemergence wheat; format: in vivo, Triticum aestivum; details: Preemergence
Method in brief: as §1

wild oat = assay: Test B pre/postemergence wild oat; format: in vivo, Avena fatua; details: Preemergence
Method in brief: as §1

purple nutsedge = assay: Test B pre/postemergence purple nutsedge; format: in vivo, Cyperus rotundus
Method in brief: as §1

rice = assay: Test B flood test rice; format: in vivo, Oryza sativa
Method in brief: (§2)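 Read-out is a visual response score from 0 (no effect) to 10 (complete control), assigned by comparison with untreated controls. Treatment was applied at the 2-leaf stage, and plants stayed in the greenhouse for twelve to sixteen days before scoring.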

smallflower flatsedge = assay: Test B flood test smallflower flatsedge; format: in vivo, Cyperus difformis
Method in brief: as §2

duck salad = assay: Test B flood test duck salad; format: in vivo, Heteranthera limosa
Method in brief: as §2

bamyardgrass = assay: Test B flood test barnyardgrass; format: in vivo, Echinochloa crus-galli
Method in brief: as §2

[1] = Preemergence, Rate 31 g/ha, visual rating, scale 0 to 10 (0 no effect, 10 complete control)
[2] = Preemergence, Rate 62 g/ha, scale of 0 to 10 where 0 is no effect and 10 is complete control
[3] = Preemergence, Rate 250 g/ha, scale of 0 to 10 where 0 is no effect and 10 is complete control
[4] = Rate 31 g/ha, Postemergence, scale 0 to 10
[5] = Rate 62 g/ha, Postemergence, scale of 0 to 10 where 0 is no effect and 10 is complete control
[6] = Rate 125 g/ha, Postemergence, scale 0 to 10
[7] = Rate 125 g/ha, Preemergence, scale of 0 to 10 where 0 is no effect and 10 is complete control
[8] = Rate 31 g/ha, visual rating, scale 0 to 10 (0 no effect, 10 complete control)
[9] = Rate 62 g/ha, scale of 0 to 10 where 0 is no effect and 10 is complete control
[10] = Rate 250 g/ha, scale of 0 to 10 where 0 is no effect and 10 is complete control
[11] = Rate 125 g/ha, scale of 0 to 10 where 0 is no effect and 10 is complete control
[12] = Rate 62 g/ha, headed Pre-emergence (flood test species), scale 0 to 10 (0 no effect, 10 complete control)
[13] = Rate 125 g/ha, Pre-emergence, flood test species, scale 0 to 10 where 0 is no effect and 10 is complete control
[14] = Rate 250 g/ha, Pre-emergence, flood-test species, scale 0 to 10, 0 is no effect, 10 is complete control
[15] = Rate 500 g/ha, Pre-emergence, flood test species, scale 0 to 10 (0 no effect, 10 complete control)

CCN(CC)C(=O)Cn1c(=O)on(C(=O)N(c2ccc(F)cc2)C(C)C)c1=O [Compound 264]
Bedstraw plant response rating (bedstraw; [1]): 0 | Bedstraw plant response rating (bedstraw; [2]): 0 | Bedstraw plant response rating (bedstraw; [3]): 0 | Bedstraw plant response rating (bedstraw; [4]): 0 | Bedstraw plant response rating (bedstraw; [5]): 0 | Bedstraw plant response rating (bedstraw; [6]): 6 | Bedstraw plant response rating (bedstraw; [7]): 0 | Plant response rating (0 to 10; 0 is no effect, 10 is complete control), Bedstraw (bedstraw; Rate 250 g/ha, Postemergence): 6 | Blackgrass plant response rating (blackgrass; [1]): 0 | Blackgrass plant response rating (blackgrass; [2]): 0 | Blackgrass plant response rating (blackgrass; [3]): 4 | Blackgrass plant response rating (blackgrass; [4]): 0 | Blackgrass plant response rating (blackgrass; [5]): 2 | Blackgrass plant response rating (blackgrass; [6]): 2 | Blackgrass plant response rating (blackgrass; [7]): 0 | Plant response rating (0 to 10; 0 is no effect, 10 is complete control), Blackgrass (blackgrass; Rate 250 g/ha, Postemergence): 3 | B. signalgrass plant response rating (surinam grass; [1]): 0 | B. signalgrass plant response rating (surinam grass; [2]): 0 | B. signalgrass plant response rating (surinam grass; [3]): 5 | B. signalgrass plant response rating (surinam grass; [4]): 0 | B. signalgrass plant response rating (surinam grass; [5]): 0 | B. signalgrass plant response rating (surinam grass; Rate 125 g/ha, Postemergence, scale 0 (no effect) to 10 (complete control)): 0 | B. signalgrass plant response rating (surinam grass; [7]): 0 | Plant response rating (0 to 10; 0 is no effect, 10 is complete control), B. signalgrass (surinam grass; Rate 250 g/ha, Postemergence): 0 | Cocklebur plant response rating (cocklebur; [1]): 0 | Cocklebur plant response rating (cocklebur; [2]): 0 | Cocklebur plant response rating (cocklebur; [3]): 0 | Cocklebur plant response rating (cocklebur; [4]): 0 | Cocklebur plant response rating (cocklebur; [5]): 0 | Cocklebur plant response rating (cocklebur; [6]): 0 | Cocklebur plant response rating (cocklebur; [7]): 0 | Plant response rating (0 to 10; 0 is no effect, 10 is complete control), Cocklebur (cocklebur; Rate 250 g/ha, Postemergence): 0 | Corn plant response rating (corn; [1]): 0 | Corn plant response rating (corn; [2]): 0 | Corn plant response rating (corn; [3]): 0 | Corn plant response rating (corn; [4]): 0 | Corn plant response rating (corn; [5]): 0 | Corn plant response rating (corn; [6]): 0 | Corn plant response rating (corn; [7]): 0 | Plant response rating (0 to 10; 0 is no effect, 10 is complete control), Corn (corn; Rate 250 g/ha, Postemergence): 0 | Crabgrass plant response rating (crabgrass; [1]): 0 | Crabgrass plant response rating (crabgrass; [2]): 0 | Crabgrass plant response rating (crabgrass; [3]): 3 | Crabgrass plant response rating (crabgrass; [4]): 0 | Crabgrass plant response rating (crabgrass; [7]): 2 | Plant response rating (0 to 10; 0 is no effect, 10 is complete control), Crabgrass (crabgrass; Rate 250 g/ha, Postemergence): 0 | Giant foxtail plant response rating (giant foxtail; [1]): 0 | Giant foxtail plant response rating (giant foxtail; [2]): 2 | Giant foxtail plant response rating (giant foxtail; [3]): 7 | Giant foxtail plant response rating (giant foxtail; [4]): 0 | Giant foxtail plant response rating (giant foxtail; [7]): 7 | Plant response rating (0 to 10; 0 is no effect, 10 is complete control), Giant foxtail (giant foxtail; Rate 250 g/ha, Postemergence): 0 | Morningglory plant response rating (morningglory; [1]): 0 | Morningglory plant response rating (morningglory; [2]): 0 | Morningglory plant response rating (morningglory; [3]): 0 | Morningglory plant response rating (morningglory; [4]): 6 | Morningglory plant response rating (morningglory; [7]): 0 | Plant response rating (0 to 10; 0 is no effect, 10 is complete control), Morningglory (morningglory; Rate 250 g/ha, Postemergence): 10 | Redroot pigweed plant response rating (pigweed; [1]): 0 | Redroot pigweed plant response rating (pigweed; [2]): 0 | Redroot pigweed plant response rating (pigweed; [3]): 0 | Redroot pigweed plant response rating (pigweed; [4]): 0 | Redroot pigweed plant response rating (pigweed; [7]): 0 | Plant response rating (0 to 10; 0 is no effect, 10 is complete control), Redroot pigweed (pigweed; Rate 250 g/ha, Postemergence): 0 | Rape plant response rating (rape; [1]): 0 | Rape plant response rating (rape; [2]): 0 | Rape plant response rating (rape; [3]): 0 | Rape plant response rating (rape; [4]): 0 | Rape plant response rating (rape; [7]): 0 | Plant response rating (0 to 10; 0 is no effect, 10 is complete control), Rape (rape; Rate 250 g/ha, Postemergence): 0 | Soybean plant response rating (soybean; [8]): 0 | Soybean plant response rating (soybean; [9]): 0 | Soybean plant response rating (soybean; [10]): 3 | Soybean plant response rating (soybean; [11]): 0 | Sugarbeets plant response rating (sugar beet; [8]): 0 | Sugarbeets plant response rating (sugar beet; [9]): 0 | Sugarbeets plant response rating (sugar beet; [10]): 1 | Sugarbeets plant response rating (sugar beet; [11]): 0 | Velvetleaf plant response rating (velvetleaf; [8]): 0 | Velvetleaf plant response rating (velvetleaf; [9]): 0 | Velvetleaf plant response rating (velvetleaf; [10]): 0 | Velvetleaf plant response rating (velvetleaf; [11]): 0 | Wheat plant response rating (wheat; [8]): 0 | Wheat plant response rating (wheat; [9]): 0 | Wheat plant response rating (wheat; [10]): 2 | Wheat plant response rating (wheat; [11]): 0 | Wild oats plant response rating (wild oat; [8]): 0 | Wild oats plant response rating (wild oat; [9]): 2 | Wild oats plant response rating (wild oat; [10]): 5 | Wild oats plant response rating (wild oat; [11]): 4 | Nutsedge plant response rating (purple nutsedge; [1]): 0 | Nutsedge plant response rating (purple nutsedge; [3]): 0 | Nutsedge plant response rating (purple nutsedge; [4]): 0 | Plant response rating (0 to 10; 0 is no effect, 10 is complete control), Nutsedge (purple nutsedge; Rate 250 g/ha, Postemergence): 0 | Rice plant response rating (rice; [12]): 0 | Rice plant response rating (rice; [13]): 0 | Rice plant response rating (rice; [14]): 0 | Rice plant response rating (rice; [15]): 1 | S. Flatsedge plant response rating (smallflower flatsedge; [12]): 0 | S. Flatsedge plant response rating (smallflower flatsedge; [13]): 0 | S. Flatsedge plant response rating (smallflower flatsedge; [14]): 0 | S. Flatsedge plant response rating (smallflower flatsedge; [15]): 0 | Ducksalad plant response rating (duck salad; [12]): 0 | Ducksalad plant response rating (duck salad; [13]): 0 | Ducksalad plant response rating (duck salad; [14]): 0 | Ducksalad plant response rating (duck salad; [15]): 0 | Barnyardgrass plant response rating (bamyardgrass; [12]): 0 | Barnyardgrass plant response rating (bamyardgrass; [13]): 0 | Barnyardgrass plant response rating (bamyardgrass; [14]): 0 | Barnyardgrass plant response rating (bamyardgrass; [15]): 0
